pIC50: −log10 of the molar value.
Each compound was assayed against human IDO1 (Homo sapiens, UniProt P14902) (assay: Human IDO-1 inhibitory activity in HEK cells (human IDO1/HEK293 cellular assay)). Conditions: HEK human IDO-1 cellular assay; 500 nM reference standard = 100% inhibition, DMSO = 0%.
Assay type: cell-based
Parameters: expressed in transfected cells
Experimental: They were cultured in medium (DMEM with 10% FBS) containing 1 mg/ml G418 for two weeks.
The human IDO1/HEK293 cells were seeded at 10,000 cells per 50 μL per well with RPMI/phenol red free media contains 10% FBS in a 384-well black wall clear bottom tissue culture plate (Matrix Technologies LLC) 100 nL of certain concentration of compound was then added to each well using ECHO liquid handling systems. The cells were incubated for 20 hours in 37° C. incubator with 5% CO2.
The compound treatments were stopped by adding trichloroacetic acid (Sigma-Aldrich) to a final concentration at 0.2%. The cell plate was further incubated at 50° C. for 30 minute. The equal volume supernatant (20 μL) and 0.2% (w/v) Ehrlich reagent (4-dimethylaminobenzaldehyde, Sigma-Aldrich) in glacial acetic acid were mixed in a new clear bottom 384-well plate. This plate was then incubated at room temperature for 30 minute. The absorbance at 490 nm was measured on Envision plate reader.

human IDO1, sequence (P14902 whole entry): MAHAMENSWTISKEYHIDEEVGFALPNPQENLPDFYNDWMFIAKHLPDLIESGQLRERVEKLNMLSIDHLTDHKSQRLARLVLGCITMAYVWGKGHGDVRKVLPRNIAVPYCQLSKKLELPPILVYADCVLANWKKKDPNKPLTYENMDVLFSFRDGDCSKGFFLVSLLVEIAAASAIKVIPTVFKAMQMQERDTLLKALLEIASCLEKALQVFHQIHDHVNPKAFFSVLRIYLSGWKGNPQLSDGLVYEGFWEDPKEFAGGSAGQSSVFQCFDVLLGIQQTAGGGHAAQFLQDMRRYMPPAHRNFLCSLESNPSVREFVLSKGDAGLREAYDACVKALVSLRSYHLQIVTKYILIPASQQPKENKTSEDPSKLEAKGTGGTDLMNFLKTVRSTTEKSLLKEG

Compound	pIC50
CCN(c1ccc(C(CC(=O)O)c2ccccc2)cc1NC(=O)Nc1cc(C)on1)C1CCOCC1 (single isomer, unassigned) [Example 597, 3-(4-(ethyl(tetrahydro-2H-pyran-4-yl)amino)-3-(3-(5-methylisoxazol-3-yl)ureido)phenyl)-3-phenylpropanoic acid]	< 7.30
(+/−)-Methyl 3-(4-(isobutyl((1 r,4r)-4-methoxycyclohexyl)amino)-3-(3-(p-tolyl)ureido)phenyl)-4-methoxybutanoate [Example 1005]	< 7.30
CCN(c1ccc([C@H](COC)CC(=O)O)cc1Nc1cnc(C)nc1)C1CCOCC1 (single isomer, unassigned) [Example 416]	< 7.30
CCN(c1ccc(C(COC(C)C)CC(=O)O)cc1Nc1ccc(F)cc1)C1CCS(=O)(=O)CC1 (stereo not drawn) [Example 336]	> 7.30
CCC(CC(=O)O)c1ccc(N(CC)C2CCCOC2)c(Nc2ccc(Cl)cc2)c1 (single isomer, unassigned) [Example 60 E1, 3-(3-((4-Chlorophenyl)amino)-4-(ethyl(tetrahydro-2H-pyran-3-yl)amino)phenyl)pentanoic Acid]	> 8.30
CCCOc1ncc(Nc2cc(C(CC)CC(=O)O)ccc2N(CC(C)C)C2CCCCC2)cn1 (single isomer, unassigned) [Example 654, 3-(4-(cyclohexyl(isobutyl)amino)-3-((2-propoxypyrimidin-5-yl)amino)phenyl)pentanoic acid]	> 8.30
CC[C@H](CC(=O)O)c1ccc(N2CCOC[C@@H]2C(C)C)c(Nc2ccc(F)cc2)c1 (single isomer, unassigned) [Example 90]	> 7.30
CCN(c1ccc(C(C)CC(=O)O)cc1NC(=O)Nc1ccc(Cl)cc1F)C1CCOCC1 (single isomer, unassigned) [Example 637 E2, 3-(3-(3-(4-Chloro-2-fluorophenyl)ureido)-4-(ethyl (tetrahydro-2H-pyran-4-yl)amino)phenyl)butanoic Acid]	> 8.30
CCC(CC(=O)O)c1ccc(N2C[C@@H]3C[C@H]2CN3Cc2ccccc2)c(Nc2ccc(C)cc2)c1 (single isomer, unassigned) [Example 666 E2]	> 8.30
3-(4-((1,1-dioxidotetrahydro-2H- thiopyran-4-yl)(ethyl)amino)-3-((4- fluorophenyl)amino)phenyl)-4- isopropoxybutanoic acid [Example 338]	> 7.30
CCOc1ncc(Nc2cc(C(CC)CC(=O)O)cc(F)c2N(CC(C)C)CC(C)C)cn1 (single isomer, unassigned) [Example 119, 3-(4-(diisobutylamino)-3-((2-ethoxypyrimidin-5-yl)amino)-5-fluorophenyl) pentanoic acid]	> 8.30
CCC(CC(=O)O)c1ccc(N2CCCC2C(C)(C)F)c(NC(=O)Nc2ccc(OC)cc2F)c1 [Example 787, 3-(3-(3-(2-fluoro-4-methoxyphenyl)ureido)-4-((S)-2-(2-(fluoropropan-2-yl)pyrrolidin-1-yl)phenyl)pentanoic acid]	< 7.30
CCN(c1ccc(C(CC(=O)O)c2ccccc2)cc1NC(=O)Nc1ccc(C)cc1)C1CCOCC1 (single isomer, unassigned) [Example 594, 3-(4-(Ethyl(tetrahydro-2H-pyran-4-yl)amino)-3-(3-(p-tolyl)ureido)phenyl)-3-phenylpropanoic Acid]	< 7.30
CCCN(CC1CC1)c1ccc(C(CC)CC(=O)O)cc1Nc1ccc(Cl)cc1 (single isomer, unassigned) [Example 656 E2, 3-(3-((4-Chlorophenyl)amino)-4-((cyclopropylmethyl) (propyl)amino)phenyl)pentanoic Acid]	> 8.30
CCN(c1ccc([C@H](COC)CC(=O)O)cc1Nc1cnc(OC)nc1)C1CCOCC1 (single isomer, unassigned) [Example 387]	> 7.30
CCC(CC(=O)O)c1ccc(N2CCC[C@H]2C(C)(C)O)c(NC(=O)Nc2cc(C)on2)c1 (single isomer, unassigned) [Example 831]	< 7.30
CCN(c1ccc(C(COC(C)C)CC(=O)O)cc1Nc1ccc(F)cc1)C1CCS(=O)(=O)CC1 (stereo not drawn) [Example 316]	> 7.30
3-(4-((1,1- dioxidotetrahydro-2H- thiopyran-4-yl)(ethyl) amino)-3-((4-fluorophenyl) amino)phenyl)-4- isopropoxybutanoic acid [Example 300]	> 7.30
CCN(c1ccc(C(C)CC(=O)O)cc1Nc1ccc(Cl)cc1)C1CCOCC1 (single isomer, unassigned) [Example 612 E2, 3-(3-((4-Chlorophenyl)amino)-4-(ethyl(tetrahydro-2H-pyran-4-yl)amino)phenyl)butanoic Acid]	> 8.30
CCC(CC(=O)O)c1ccc(N(CC)C2CCOCC2)c(NC(=O)Nc2ccc(C)cc2)c1 (single isomer, unassigned) [Example 487 Enantiomer 2, 3-(4-(Ethyl(tetrahydro-2H-pyran-4-yl)amino)-3-(3-(p-tolyl)ureido)phenyl)pentanoic Acid]	> 8.30

Other lines, results leading:

pIC50	Compound
> 8.30	CCC(CC(=O)O)c1cc(F)c(N(CC(C)C)C2CCCCC2)c(NC(=O)Nc2ccc(Cl)cc2F)c1 (racemic) [Example 1090, 3-(3-(3-(4-chloro-2-fluorophenyl)ureido)-4-(cyclohexyl(isobutyl)amino)-5-fluorophenyl)pentanoic acid]
> 7.30	COCC(CC(=O)O)c1cc(F)c(N(CC(C)C)CC(C)C)c(NC(=O)Nc2ccc(OC(F)(F)F)cc2)c1 (single isomer, unassigned) [Example 1197, 3-(4-(Diisobutylamino)-3-fluoro-5-(3-(4-(trifluoromethoxy)phenyl)ureido)phenyl)-4-methoxybutanoic Acid]
< 7.30	COCC(CC(=O)O)c1ccc(N(CC(C)C)C2CCCCC2)c(NC(=O)Cc2cc(C)on2)c1 (single isomer, unassigned) [Example 1238, 3-(4-(Cyclohexyl(isobutyl)amino)-3-(2-(5-methylisoxazol-3-yl)acetamido)phenyl)-4-methoxybutanoic Acid]
> 8.30	CCOc1ccc(NC(=O)Nc2cc(C(COC)CC(=O)O)cc(F)c2N(CC(C)C)CC(C)C)cc1 (single isomer, unassigned) [Example 1185, 3-(4-(diisobutylamino)-3-(3-(4-ethoxyphenyl)ureido)-5-fluorophenyl)-4-methoxybutanoic acid]
> 8.30	CCC(CC(=O)O)c1cc(F)c(N(CC(C)C)C2CCCCC2)c(NC(=O)Cc2ccc(C)cc2)c1 (single isomer, unassigned) [Example 1101 E2]
> 7.30	CCC(CC(=O)O)c1ccc(N(CCC(C)C)C2CCCCC2)c(NC(=O)Cc2ccc(C)cc2)c1 (single isomer, unassigned) [Example 1099 E1]
> 8.30	CCC(CC(=O)O)c1cc(F)c(N(CC(C)C)C2CCCCC2)c(NC(=O)Cc2ccc(C)cc2)c1 (single isomer, unassigned) [Example 1101 E1]
> 7.30	CCC(CC(=O)O)c1ccc(N(CCC(C)C)C2CCCCC2)c(NC(=O)Cc2ccc(C)cc2)c1 (single isomer, unassigned) [Example 1099 E2]
> 8.30	CCC(CC(=O)O)c1ccc(N(CC(C)C)CC(C)C)c(NC(=O)Cc2ccc(C)cc2)c1 (single isomer, unassigned) [Example 1103 E2, 3-(4-(Diisobutylamino)-3-(2-(p-tolyl)acetamido)phenyl)pentanoic Acid]
> 8.30	CCC(CC(=O)O)c1cc(F)c(N(CC(C)C)CC(C)C)c(NC(=O)Cc2ccc(Cl)cc2F)c1 (single isomer, unassigned) [Example 1092 E2]

From patent US10399933B2, “Inhibitors of indoleamine-2,3-dioxygenase for the treatment of cancer” (BRISTOL-MYERS SQUIBB COMPANY, priority 2015, dated 2019)
